# Reference: US20070208087A1, “Compounds, compositions and methods for the treatment of inflammatory diseases” (priority 2001, published 2007)
# Where “and” joins values, the source holds several entries; their conditions need not be identical. Equal values may be shown once. Read-outs that look alike come from different tables or passages of the source.
# Tests used:
# Assay type in all cases: cell-based
# [1] = system: Microglial cells; test: Dose response inhibition of NO release from microglia, 0.75-200 μM (Example 8)
# Experimental: This experiment was designed to determine dose response inhibition of NO release from microglia by bis- and tris-dihydroxyaryl compounds when stimulated with LPS/IFNγ. […] This experiment is designed to determine a dose response for various bis- and tris-dihydroxyaryl compounds. Microglial cells were plated into 96 well plates at 1×10^5 cells/ml. […] The doses tested were: 0.75 μM, 1.56 μM, 3.125 μM, 6.25 μM, 12.5 μM, 25 μM, 50 μM, 100 μM and 200 μM. Nitric oxide release was measured after 48 hours using the Griess reaction.
# [2] = system: microglia; test: Ranking of NO release inhibition (Example 12); conditions: Microglia, ranking table
# Description: The bis- and tris-dihydroxyaryl compounds were ranked in order of effectiveness for the inhibition of NO release as set out in Table 8.
# [3] = system: Microglial cells; test: Dose response inhibition of NO release from microglia, 0.5-500 μM (Example 9); conditions: for μM NO release / μM NO release (No LPS average subtracted): 3 replicates
# Experimental: This experiment was designed to determine the dose response inhibition of NO release from microglia by bis- and tris-dihydroxyaryl compounds when stimulated with LPS/IFNγ. Earlier experiments have demonostrated that some bis- and tris-dihydroxyaryl compounds are good inhibitors of NO release from microglia. This experiment is designed to determine a dose response for various effective bis- and tris-dihydroxyaryl compounds. Microglial cells were plated into 96 well plates at 1×10^5 cells/ml. At 48 hours, media was exchanged for media containing 10 ng/ml IFNγ and 10 μg/ml LPS and the following compounds 3, 4, 21, 26 and the positive control L-NAME. The doses tested were: 0.5 μM, 1.0 μM, 5.0 μM, 10 μM, 25 μM, 50 μM, 100 μM, 250 μM, and 500 μM. Nitric oxide release was measured after 48 hours using the Griess reaction.
# [4] = system: EOC 13.31 microglia cells; test: NO release inhibition in LPS/IFNγ stimulated microglia, concurrent treatment, Griess reaction at 24 hours (Example 6); conditions: for NO release, Avg / inhibition at 50 µM: 24 hours; for inhibition at 50 µM: Microglia
# Summary of the method: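 Confluent EOC 13.31 microglia were given 50 μM compound together with 1 pg/ml LPS plus 1 ng/ml IFNγ, or without stimulation. NO release was quantified spectrophotometrically by Griess reaction 24 hours later.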
# [5] = dose 0.75 μM, 48 hours, single replicates
# [6] = dose 1.56 μM, 48 hours, single replicates
# [7] = dose 3.125 μM, 48 hours, single replicates
# [8] = dose 6.25 μM, 48 hours, single replicates
# [9] = dose 12.5 μM, 48 hours, single replicates
# [10] = dose 25 μM, 48 hours, single replicates
# [11] = dose 50 μM, 48 hours, single replicates
# [12] = dose 100 μM, 48 hours, single replicates
# [13] = dose 200 μM, 48 hours, single replicates
# [14] = dose 0.5 μM, LPS/IFNγ, 48 hours
# [15] = dose 100 μM, LPS/IFNγ, 48 hours
# [16] = dose 250 μM, LPS/IFNγ, 48 hours
# [17] = dose 500 μM, LPS/IFNγ, 48 hours
structure (smiles),measurement,setting,value
"O=C(N[C@@H]1CCCC[C@H]1NC(=O)c1ccc(O)c(O)c1)c1ccc(O)c(O)c1 (relative stereo) [Compound 26, N,N′-bis(3,4-dihydroxybenzoyl)-trans-1,2-diaminocyclohexane]",inhibition at 0.75 µM,"[1]; Microglia, 48 h, dose 0.75 μM",-1.78%
same,inhibition at 1.56 µM,"[1]; Microglia, 48 h, dose 1.56 μM",6%
same,inhibition at 3.125 µM,"[1]; Microglia, 48 h, dose 3.125 μM",5.78%
same,inhibition at 6.25 µM,"[1]; Microglia, 48 h, dose 6.25 μM, 48 hours, read-out: Avg % Inhibition",0.428%
same,inhibition at 12.5 µM,"[1]; Microglia, 48 h, dose 12.5 μM, 48 hours, read-out: Avg % Inhibition",10.1%
same,inhibition at 12.5 µM,"[1]; Microglia, 48 h, dose 12.5 μM, 48 hours, single replicates, read-out: % inhibition",10.1%
same,inhibition at 25 µM,"[1]; Microglia, 48 h, dose 25 μM, 48 hours, read-out: Avg % Inhibition",10.1%
same,inhibition at 25 µM,"[1]; Microglia, 48 h, dose 25 μM, 48 hours, single replicates, read-out: % inhibition",13.3%
same,inhibition at 50 µM,"[1]; Microglia, 48 h, dose 50 μM, 48 hours, read-out: Avg % Inhibition",19.7%
same,inhibition at 50 µM,"[1]; Microglia, 48 h, dose 50 μM, 48 hours, single replicates, read-out: % inhibition",19.7%
same,inhibition at 100 µM,"[1]; Microglia, 48 h, dose 100 μM, 48 hours, read-out: Avg % Inhibition",23.6%
same,inhibition at 200 µM,"[1]; Microglia, 48 h, dose 200 μM, 48 hours, read-out: Avg % Inhibition",44.5%
same,inhibition at 200 µM,"[1]; Microglia, 48 h, dose 200 μM, 48 hours, single replicates, read-out: % inhibition",46%
same,μM NO release Avg,"[1]; dose 0.75 μM, 48 hours",24.756 µM
same,% inhibition,[1]; [5],1.07% and −4.91% and −1.50%
same,OD values (printed under head μM NO release),[1]; [5],0.21 and 0.206 and 0.215
same,μM NO release,[1]; [5],24.688 µM and 24.063 µM and 25.517 µM
same,μM NO release Avg,"[1]; dose 1.56 μM, 48 hours",22.865 µM
same,% inhibition,[1]; [6],9.42% and 2.36% and 6.21%
same,OD values (printed under head μM NO release),[1]; [6],0.198 and 0.193 and 0.204
same,μM NO release,[1]; [6],22.813 µM and 22.031 µM and 23.750 µM
same,μM NO release Avg,"[1]; dose 3.125 μM, 48 hours",22.917 µM
same,% inhibition,[1]; [7],8.14% and 2.36%
same,OD values (printed under head μM NO release),[1]; [7],0.197 and 0.195 and 0.204
same,μM NO release,[1]; [7],22.656 µM and 22.344 µM and 23.750 µM
same,μM NO release Avg,"[1]; dose 6.25 μM, 48 hours",24.219 µM
same,% inhibition,[1]; [8],3.64% and −2.14% and −0.21%
same,OD values (printed under head μM NO release),[1]; [8],0.208 and 0.202 and 0.211
same,μM NO release,[1]; [8],24.375 µM and 23.438 µM and 24.844 µM
same,μM NO release Avg,"[1]; dose 12.5 μM, 48 hours",21.875 µM
same,OD values (printed under head μM NO release),[1]; [9],0.192
same,μM NO release,[1]; [9],21.875 µM
same,μM NO release Avg,"[1]; dose 25 μM, 48 hours",21.875 µM
same,OD values (printed under head μM NO release),[1]; [10],0.197 and 0.187 and 0.192
same,μM NO release,[1]; [10],22.656 µM and 21.094 µM and 21.875 µM
same,μM NO release Avg,"[1]; dose 50 μM, 48 hours",19.531 µM
same,% inhibition,[1]; [11],18.42% and 20.99%
same,OD values (printed under head μM NO release),[1]; [11],0.175 and 0.177 and 0.179
same,μM NO release,[1]; [11],19.219 µM and 19.531 µM and 19.844 µM
same,μM NO release Avg,"[1]; dose 100 μM, 48 hours",18.594 µM
same,% inhibition,[1]; [12],17.13% and 19.06% and 34.48%
same,OD values (printed under head μM NO release),[1]; [12],0.154 and 0.181 and 0.178
same,μM NO release,[1]; [12],15.938 µM and 20.156 µM and 19.688 µM
same,μM NO release Avg,"[1]; dose 200 μM, 48 hours",13.490 µM
same,% inhibition,[1]; [13],40.26% and 47.32%
same,OD values (printed under head μM NO release),[1]; [13],0.134 and 0.136 and 0.145
same,μM NO release,[1]; [13],12.813 µM and 13.125 µM and 14.531 µM
same,inhibition at 50 µM,[2],20%
same,inhibition at 0.5 µM,"[3]; Microglia, 48 h, dose 0.5 μM, NO release, LPS/IFNγ, 48 hours, read-out: Avg % Inhibition",-4.06%
same,inhibition at 1 µM,"[3]; Microglia, 48 h, dose 1 μM, NO release, LPS/IFNγ, 48 hours, read-out: Avg % Inhibition",0.51%
same,inhibition at 5 µM,"[3]; Microglia, 48 h, dose 5 μM, NO release, LPS/IFNγ",-4.31%
same,inhibition at 10 µM,"[3]; Microglia, 48 h, dose 10 μM, NO release, LPS/IFNγ",-1.01%
same,inhibition at 25 µM,"[3]; Microglia, 48 h, dose 25 μM, NO release, LPS/IFNγ",6.85%
same,inhibition at 50 µM,"[3]; Microglia, 48 h, dose 50 μM, NO release, LPS/IFNγ",6.59%
same,inhibition at 100 µM,"[3]; Microglia, 48 h, dose 100 μM, NO release, LPS/IFNγ, 48 hours, read-out: Avg % Inhibition",16.2%
same,inhibition at 100 µM,"[3]; Microglia, 48 h, dose 100 μM, individual replicates, NO release, LPS/IFNγ, 48 hours, read-out: % inhibition",17.2%
same,inhibition at 250 µM,"[3]; Microglia, 48 h, dose 250 μM, NO release, LPS/IFNγ, 48 hours, read-out: Avg % Inhibition",35.2%
same,inhibition at 250 µM,"[3]; Microglia, 48 h, dose 250 μM, individual replicates, NO release, LPS/IFNγ, 48 hours, read-out: % inhibition",36.3%
same,inhibition at 500 µM,"[3]; Microglia, 48 h, dose 500 μM, NO release, LPS/IFNγ, 48 hours, read-out: Avg % Inhibition",99.5%
same,inhibition at 500 µM,"[3]; Microglia, 48 h, dose 500 μM, individual replicates, NO release, LPS/IFNγ, 48 hours, read-out: % inhibition",98.4%
same,inhibition at 500 µM,"[3]; Microglia, 48 h, highest concentration tested (500 μM), 48 hours, read-out: inhibited NO release by",99%
same,μM NO release,[3]; [14],21.667 µM and 19.306 µM and 21.111 µM
same,μM NO release (No LPS average subtracted),[3]; [14],19.97 µM and 17.61 µM and 19.41 µM
same,% inhibition,"[3]; dose 0.5 μM, individual replicates, NO release, LPS/IFNγ, 48 hours",−9.38% and 3.55% and −6.34%
same,μM NO release,"[3]; dose 1 μM, LPS/IFNγ, 48 hours",19.722 µM and 19.028 µM and 20.833 µM
same,μM NO release (No LPS average subtracted),"[3]; dose 1 μM, LPS/IFNγ, 48 hours",18.02 µM and 17.33 µM and 19.13 µM
same,% inhibition,"[3]; dose 1 μM, individual replicates, NO release, LPS/IFNγ, 48 hours",1.27% and 5.07% and −4.82%
same,μM NO release,"[3]; dose 5 μM, LPS/IFNγ, 48 hours",20.000 µM and 21.528 µM and 20.694 µM
same,μM NO release (No LPS average subtracted),"[3]; dose 5 μM, LPS/IFNγ, 48 hours",18.30 µM and 19.83 µM and 18.99 µM
same,% inhibition,"[3]; dose 5 μM, individual replicates, NO release, LPS/IFNγ, 48 hours",−0.25% and −8.62%
same,μM NO release,"[3]; dose 10 μM, LPS/IFNγ, 48 hours",20.139 µM and 19.583 µM and 20.694 µM
same,μM NO release (No LPS average subtracted),"[3]; dose 10 μM, LPS/IFNγ, 48 hours",18.44 µM and 17.88 µM and 18.99 µM
same,% inhibition,"[3]; dose 10 μM, individual replicates, NO release, LPS/IFNγ, 48 hours",2.03%
same,μM NO release,"[3]; dose 25 μM, LPS/IFNγ, 48 hours",18.194 µM and 18.333 µM and 19.583 µM
same,μM NO release (No LPS average subtracted),"[3]; dose 25 μM, LPS/IFNγ, 48 hours",16.49 µM and 16.63 µM and 17.88 µM
same,% inhibition,"[3]; dose 25 μM, individual replicates, NO release, LPS/IFNγ, 48 hours",9.64% and 8.88% and 2.03%
same,μM NO release,"[3]; dose 50 μM, LPS/IFNγ, 48 hours",18.333 μM (2×) and 19.583 μM
same,μM NO release (No LPS average subtracted),"[3]; dose 50 μM, LPS/IFNγ, 48 hours",16.63 μM (2×) and 17.88 μM
same,% inhibition,"[3]; dose 50 μM, individual replicates, NO release, LPS/IFNγ, 48 hours",8.88% (2×) and 2.03%
same,μM NO release,[3]; [15],16.806 μM (2×) and 17.361 μM
same,μM NO release (No LPS average subtracted),[3]; [15],15.11 μM (2×) and 15.66 μM
same,% inhibition,"[3]; dose 100 μM, individual replicates, NO release, LPS/IFNγ, 48 hours",14.20%
same,μM NO release,[3]; [16],13.333 µM and 13.194 µM and 14.028 µM
same,μM NO release (No LPS average subtracted),[3]; [16],11.63 µM and 11.49 µM and 12.33 µM
same,% inhibition,"[3]; dose 250 μM, individual replicates, NO release, LPS/IFNγ, 48 hours",37.03% and 32.46%
same,μM NO release,[3]; [17],2.000 µM and 1.500 µM and 1.867 µM
same,μM NO release (No LPS average subtracted),[3]; [17],0.30 µM and -0.20 µM and 0.17 µM
same,% inhibition,"[3]; dose 500 μM, individual replicates, NO release, LPS/IFNγ, 48 hours",101.10% and 99.09%
same,"inhibition of NO release, in words","[4]; 50 μM, LPS/IFNγ stimulated microglial cells",very effective inhibitors of NO release
same,"NO release, Avg","[4]; Compound + LPS/IFNγ, 50 μM",14.8384 µM
same,"NO release, Avg","[4]; Compound Only (without LPS/IFNγ), 50 μM",0.0000 µM
same,inhibition at 50 µM,"[4]; Compound + LPS/IFNγ, read-out: % inhibition of NO release",20.3%
same,inhibition at 50 µM,"[4]; Table 2 summary, LPS/IFNγ, read-out: % Inhibition (summary of inhibition of NO release)",20.3%
